This is an account of results in paper PMC11913174 (Organic & biomolecular chemistry, 2024).

In test [1] the test system is 3D7 (wild-type) parasites. Put plainly: Antiplasmodial dose-response against 3D7. In kind it is cell-based. To be noted: Plasmodium falciparum, 3D7, read-out: EC50 against 3D7.
For test [2], the system named is chloroquine-resistant Dd2 Plasmodium falciparum parasites. The experiment in a line: SYBR Green I antiplasmodial assay against chloroquine-resistant Dd2 parasites. In kind it is cell-based. As to conditions: DD2, read-out: EC50 against Dd2.

pEC50: −log10 of the molar value.

`COC(=O)[C@H]1[C@H]2C[C@@H]3c4[nH]c5cc(OC)ccc5c4CCN3C[C@H]2C[C@@H](OC(=O)c2cc(OC)c(OC)c(OC)c2)[C@@H]1OC` [reserpine]: the negative-log EC50 (pEC50) in test [1] and in test [2] was < 4.00 in each case.
